Data as given in patent publication US11273131B2, “Pharmaceutical compositions with enhanced permeation” (AQUESTIVE THERAPEUTICS, INC., priority 2016, dated 2022).
Marks after values point to notes of the source that are not given here.

Tests used:
[1] = Diazepam solubility in excipients; assay type: physicochemical; settings: diazepam (API) in the excipient
From the text: Diazepam was applied in the buccal area (cheek) to diffuse through the oral mucosa and enter directly into the bloodstream. Solubility of diazepam was also studied using various excipients.
The following excipients have also been studied to improve solubility.

[2] = Ex vivo permeation of epinephrine, Franz diffusion cell
Description: A franz diffusion cell is obtained and prepared.
If testing films, one can perform the following next steps: (1) weigh films, punch to match diffusion area (or smaller), reweigh, record pre- and post-punching weight; (2) wet a donor area with approximately 100 μL of phosphate buffer; (3) place film on a donor surface, top with 400 μL of phosphate buffer, and start timers.
The tissue is dermatomed to precise thickness. • 4. […] The media is selected to ensure sink conditions. • 5.

[3] = Excipient properties (HLB, water solubility); assay type: physicochemical; settings: of the excipient
[4] = FIG. 6A, 6B

## OCc1ccccc1 [Benzyl Alcohol]
[1]
  API Solubility mg/gm total mix: 400 mg/gm total mix

## CNC[C@H](O)c1ccc(O)c(O)c1 [Epinephrine Base]
[2]; 4.4 mg/mL base vs 8.00 mg/mL bitartrate
  permeation, base solubilized in situ vs Epinephrine Bitartrate: no differences were found
[2]; conc 4.4 mg/mL, solubilized in situ
  Average Steady State Flux: 0.512 ug/cm2 * min

## CNC[C@H](O)c1ccc(O)c(O)c1 [Epinephrine Bitartrate]
[2]
  permeation as a function of concentration: increasing concentration resulted in increased permeation
  permeation as a function of solution pH: pH 5 was slightly more favorable as compared to pH 3
[2]; 30 min, 16 mg/mL
  average flux: 0 μg/cm2 * min
[2]; 45 min, 16 mg/mL
  average flux: 0.2604 μg/cm2 * min
[2]; 60 min, 16 mg/mL
  average flux: 0.3125 μg/cm2 * min
[2]; 120 min, 16 mg/mL
  average flux: 0.6727 μg/cm2 * min
[2]; 180 min, 16 mg/mL
  average flux: 1.076 μg/cm2 * min
[2]; 240 min, 16 mg/mL
  average flux: 1.029 μg/cm2 * min
[2]; 300 min, 16 mg/mL
  average flux: 1.25 μg/cm2 * min
[2]; 360 min, 4 mg/mL
  Average Steady State Flux: 0.167 ug/cm2 * min
[2]; 360 min, 8 mg/mL
  Average Steady State Flux: 0.466 ug/cm2 * min
[2]; 360 min, 16 mg/mL
  Average Steady State Flux: 1.317 ug/cm2 * min
  average flux: 1.385 μg/cm2 * min
[2]; 360 min, 100 mg/mL
  Average Steady State Flux: 2.942 ug/cm2 * min

## CCCCCCCC/C=C\CCCCCCCC(=O)OCC(O)CO (stereo not shown) [Glycerol Monooleate]
[1]
  API Solubility mg/gm total mix: 71 mg/gm total mix
[3]
  HLB: 1

## CCCCCCCC/C=C\CCCCCCCC(=O)O [Oleic Acid]
[1]
  API Solubility mg/gm total mix: <50 mg/gm total mix

## CC(O)CO (stereo not shown) [Propylene Glycol]
[1]
  API Solubility mg/gm total mix: <30 mg/gm total mix

## CNC[C@H](O)c1ccc(O)c(O)c1 [epinephrine]
[4]
  time after which amount leveled off: about 40 minutes
